Assay results taken from patent publication US10508109B2 (priority 2015, dated 2019).
Counter-ions that a name gives are not always drawn. Like-named read-outs stand apart in the source and are kept apart here.

Legend:
A549 = assay: Cell-based assay, anti-proliferative activity (Cell Counting Kit-8, 72 hours); conditions: Homo sapiens, read-out: A549 IC50
Method in brief: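 After compound exposure of cells in 96-well plates, growth was measured colorimetrically and converted into IC50 values.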

SUV39H2 = SUV39H2 (Homo sapiens (Human), UniProt Q9H5I1); assay: biochemical; format: biochemical; conditions: 3H-SAM 100 nM, H3 Histone Peptide 350 nM, room temperature 3 hours
Method in brief: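 Scintillation proximity format: reactions were halted with streptavidin SPA beads (50 μg/well final) after 3 h at room temperature with enzyme dosed by lot-specific activity.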

[1] = A549 cells, 72 hours exposure, Cell Counting Kit-8

SUV39H2, sequence (Q9H5I1 whole entry): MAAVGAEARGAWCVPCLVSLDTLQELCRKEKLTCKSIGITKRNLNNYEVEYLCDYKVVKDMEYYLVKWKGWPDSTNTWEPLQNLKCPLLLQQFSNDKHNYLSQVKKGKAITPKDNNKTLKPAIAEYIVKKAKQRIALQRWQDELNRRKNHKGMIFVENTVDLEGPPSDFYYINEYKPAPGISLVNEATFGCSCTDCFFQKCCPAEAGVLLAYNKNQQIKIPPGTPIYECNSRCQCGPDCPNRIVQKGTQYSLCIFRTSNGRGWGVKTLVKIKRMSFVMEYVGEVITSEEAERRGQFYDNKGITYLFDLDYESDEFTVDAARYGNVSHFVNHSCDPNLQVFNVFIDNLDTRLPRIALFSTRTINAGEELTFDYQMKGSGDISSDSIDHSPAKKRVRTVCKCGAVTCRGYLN

Compound	IC50 (A549; [1]) [nM]	IC50 (SUV39H2) [nM]	IC50 (A549; A549, 72 h) [nM]
COc1cc(OC)c(-c2cn3ccc(N4CCN(c5ccc(N)nc5)CC4)cc3n2)cc1Cl [Example 323, 5-(4-(2-(5-chloro-2,4-dimethoxyphenyl)imidazo[1,2-a]pyridin-7-yl)piperazin-1-yl)pyridin-2-amine]	930	30.4	
COc1cc(OC)c(-c2cn3ccc(N4CCN(C(=O)CCCCNC(=O)OC(C)(C)C)CC4)cc3n2)cc1Cl [Example 315, tert-butyl (5-(4-(2-(5-chloro-2,4-dimethoxyphenyl)imidazo[1,2-a]pyridin-7-yl)piperazin-1-yl)-5-oxopentyl)carbamate]	4400	10.5	
CNC1CCCN(c2ncc(N3CCN(c4ccn5cc(-c6cc(Cl)c(OC)cc6OC)nc5c4)CC3)cn2)C1 (stereo not shown) [Example 428, 1-(5-(4-(2-(5-chloro-2,4-dimethoxyphenyl)imidazo[1,2-a]pyridin-7-yl)piperazin-1-yl)pyrimidin-2-yl)-N-methylpiperidin-3-amine]	770	14.3	
COc1cc(OC)c(-c2cn3ccc(N4CCN(c5nccc(N6CCC(=O)CC6)n5)CC4)cc3n2)cc1Cl [Example 366, 1-(2-(4-(2-(5-chloro-2,4-dimethoxyphenyl)imidazo[1,2-a]pyridin-7-yl)piperazin-1-yl)pyrimidin-4-yl)piperidin-4-one]	860	62.9	
COc1cc(OC)c(-c2cn3ccc(N4CCC(C(=O)NC5CCCCC5)CC4)cc3n2)cc1Cl [Example 453, 1-(2-(5-chloro-2,4-dimethoxyphenyl)imidazo[1,2-a]pyridin-7-yl)-N-cyclohexylpiperidine-4-carboxamide]	540	10.5	
COc1cc(OC)c(-c2cn3ccc(N4CCN(c5cc(N6CCCCC6)ncn5)CC4)cc3n2)cc1Cl [Example 353, 2-(5-chloro-2,4-dimethoxyphenyl)-7-(4-(6-(piperidin-1-yl)pyrimidin-4-yl)piperazin-1-yl)imidazo[1,2-a]pyridine]	780	41.9	
COc1cc(OC)c(-c2cn3ccc(N[C@H]4CC[C@@H](NC(=O)c5ccccc5O)CC4)cc3n2)cc1Cl [Example 392, N-(cis-4-((2-(5-chloro-2,4-dimethoxyphenyl)imidazo[1,2-a]pyridin-7-yl)amino)cyclohexyl)-2-hydroxybenzamide trifluoroacetate]	680	52.7	
COc1cc(OC)c(-c2cn3ccc(N4CCN(c5ccnc(C#N)c5)CC4)cc3n2)cc1Cl [Example 330, 4-(4-(2-(5-chloro-2,4-dimethoxyphenyl)imidazo[1,2-a]pyridin-7-yl)piperazin-1-yl)picolinonitrile]	560	98	
COc1cc(OC)c(-c2cn3ccc(N4CCN(/N=C\c5ccncc5)CC4)cc3n2)cc1Cl [Example 410, (Z)-4-(2-(5-chloro-2,4-dimethoxyphenyl)imidazo[1,2-a]pyridin-7-yl)-N-(pyridin-4-ylmethylene)piperazin-1-amine]	780	8.29	
COc1cc(OC)c(-c2cn3ccc(N4CCN(c5ncc([N+](=O)[O-])cc5C#N)CC4)cc3n2)cc1Cl [Example 349, 2-(4-(2-(5-chloro-2,4-dimethoxyphenyl)imidazo[1,2-a]pyridin-7-yl)piperazin-1-yl)-5-nitronicotinonitrile]	610	14.9	
COc1cc(OC)c(-c2cn3ccc(N[C@H]4CC[C@H](NCc5ccc(C)cc5)CC4)cc3n2)cc1Cl [Example 328, (1r,4r)-N^1-(2-(5-chloro-2,4-dimethoxyphenyl)imidazo[1,2-a]pyridin-7-yl)-N^4-(4-methylbenzyl)cyclohexane-1,4-diamine (2,2,2-trifluoroacetate)]	360	60.5	
COc1cc(OC)c(-c2cn3ccc(N4CCN(c5cc(N6CCCC6)ncn5)CC4)cc3n2)cc1Cl [Example 355, 2-(5-chloro-2,4-dimethoxyphenyl)-7-(4-(6-(pyrrolidin-1-yl)pyrimidin-4-yl)piperazin-1-yl)imidazo[1,2-a]pyridine]	670	38.8	
COc1cc(OC)c(-c2cn3ccc(N[C@H]4C[C@H]5CC[C@@H](C4)N5C(=O)OC(C)C)cc3n2)cc1Cl [Example 391, (1R,3r,5S)-isopropyl 3-((2-(5-chloro-2,4-dimethoxyphenyl)imidazo[1,2-a]pyridin-7-yl)amino)-8-azabicyclo[3.2.1]octane-8-carboxylate]	990	79.3	
COc1cc(OC)c(-c2cn3ccc(N4CCN(c5cc(N(C)C)nc(N)n5)CC4)cc3n2)cc1Cl [Example 389, 6-(4-(2-(5-chloro-2,4-dimethoxyphenyl)imidazo[1,2-a]pyridin-7-yl)piperazin-1-yl)-N^4,N^4-dimethylpyrimidine-2,4-diamine dihydrochloride]		39.3	750
COc1ccc(N2CCN(c3ccn4cc(-c5cc(Cl)c(OC)cc5OC)nc4c3)CC2)nc1 [Example 321, 2-(5-chloro-2,4-dimethoxyphenyl)-7-(4-(5-methoxypyridin-2-yl)piperazin-1-yl)imidazo[1,2-a]pyridine]	870	87.4	
COc1cc(OC)c(-c2cn3ccc(N[C@H]4CC[C@H](NCc5ccccc5O)CC4)cc3n2)cc1Cl [Example 420, 2-((((1r,4r)-4-((2-(5-chloro-2,4-dimethoxyphenyl)imidazo[1,2-a]pyridin-7-yl)amino)cyclohexyl)amino)methyl)phenol]	720	64.6	
COc1cc(OC)c(-c2cn3ccc(N4CCN(c5cnc(N6CCN(S(=O)(=O)C7CC7)CC6)nc5)CC4)cc3n2)cc1Cl [Example 369, 2-(5-chloro-2,4-dimethoxyphenyl)-7-(4-(2-(4-(cyclopropylsulfonyl)piperazin-1-yl)pyrimidin-5-yl)piperazin-1-yl)imidazo[1,2-a]pyridine 2,2,2-trifluoroacetate]	630	57.2	
CNC1CCN(c2cnc(N3CCN(c4ccn5cc(-c6cc(Cl)c(OC)cc6OC)nc5c4)CC3)nc2)CC1 [Example 458, 1-(2-(4-(2-(5-chloro-2,4-dimethoxyphenyl)imidazo[1,2-a]pyridin-7-yl)piperazin-1-yl)pyrimidin-5-yl)-N-methylpiperidin-4-amine]	420	17.5	
COc1cc(OC)c(-c2cn3ccc(N4CCN(c5ccnc(NC6CC6)n5)CC4)cc3n2)cc1Cl [Example 331, 4-(4-(2-(5-chloro-2,4-dimethoxyphenyl)imidazo[1,2-a]pyridin-7-yl)piperazin-1-yl)-N-cyclopropylpyrimidin-2-amine]	820	56.9	
COc1cc(OC)c(-c2cn3ccc(N4CCN(c5nccc(N6CCOCC6)n5)CC4)cc3n2)cc1Cl [Example 363, 4-(2-(4-(2-(5-chloro-2,4-dimethoxyphenyl)imidazo[1,2-a]pyridin-7-yl)piperazin-1-yl)pyrimidin-4-yl)morpholine]	490	26.5	
COc1cc(OC)c(-c2cn3ccc(N4CCN(c5ccnc(N6CCCC(O)C6)n5)CC4)cc3n2)cc1Cl (stereo not shown) [Example 357, 1-(4-(4-(2-(5-chloro-2,4-dimethoxyphenyl)imidazo[1,2-a]pyridin-7-yl)piperazin-1-yl)pyrimidin-2-yl)piperidin-3-ol]	600	25.8	
COCC(=O)N1CCN(c2ccn3cc(-c4cc(Cl)c(OC)cc4OC)nc3c2)CC1C (stereo not shown) [Example 310, 1-(4-(2-(5-chloro-2,4-dimethoxyphenyl)imidazo[1,2-a]pyridin-7-yl)-2-methylpiperazin-1-yl)-2-methoxyethanone]	10000	1.78	
COc1cc(OC)c(-c2cn3ccc(N4CCN(c5ncc(N)cn5)CC4)cc3n2)cc1Cl [Example 422, 2-(4-(2-(5-chloro-2,4-dimethoxyphenyl)imidazo[1,2-a]pyridin-7-yl)piperazin-1-yl)pyrimidin-5-amine hydrochloride]		11.2	720
COc1cc(OC)c(-c2cn3ccc(N4CCN(c5cc(N6CCNCC6)ncn5)CC4)cc3n2)cc1Cl [Example 375, 2-(5-chloro-2,4-dimethoxyphenyl)-7-(4-(6-(piperazin-1-yl)pyrimidin-4-yl)piperazin-1-yl)imidazo[1,2-a]pyridine]	690	23.1	
COc1cc(OC)c(-c2cn3ccc(N4CCN(c5nccc(N6CCC(N)C6)n5)CC4)cc3n2)cc1Cl (stereo not shown) [Example 405, 1-(2-(4-(2-(5-chloro-2,4-dimethoxyphenyl)imidazo[1,2-a]pyridin-7-yl)piperazin-1-yl)pyrimidin-4-yl)pyrrolidin-3-amine]	690	15.3	
CNc1ccnc(N2CCN(c3ccn4cc(-c5cc(Cl)c(OC)cc5OC)nc4c3)CC2)n1 [Example 364, 2-(4-(2-(5-chloro-2,4-dimethoxyphenyl)imidazo[1,2-a]pyridin-7-yl)piperazin-1-yl)-N-methylpyrimidin-4-amine]		40.7	550
COc1cc(OC)c(-c2cn3ccc(N[C@H]4C[C@H]5CC[C@@H](C4)N5CC4CCCC4)cc3n2)cc1Cl [Example 443, 2-(5-chloro-2,4-dimethoxyphenyl)-N-((1R,3r,5S)-8-(cyclopentylmethyl)-8-azabicyclo[3.2.1]octan-3-yl)imidazo[1,2-a]pyridin-7-amine]	820	17.3	
COc1cc(OC)c(-c2cn3ccc(N4CCN(c5nc(N)nc(N(C)C)n5)CC4)cc3n2)cc1Cl [Example 440, 6-(4-(2-(5-chloro-2,4-dimethoxyphenyl)imidazo[1,2-a]pyridin-7-yl)piperazin-1-yl)-N^2,N^2-dimethyl-1,3,5-triazine-2,4-diamine]	620	35.8	
COc1cc(OC)c(-c2cn3ccc(N4CCCN(c5cncnc5)CC4)cc3n2)cc1Cl [Example 383, 2-(5-chloro-2,4-dimethoxyphenyl)-7-(4-(pyrimidin-5-yl)-1,4-diazepan-1-yl)imidazo[1,2-a]pyridine]	880	13.8	
